Test results taken from article PMC9898036, “VIP152 is a selective CDK9 inhibitor with pre-clinical in vitro and in vivo efficacy in chronic lymphocytic leukemia” (Leukemia, 2022).
Like-named read-outs stand apart in the source and are kept apart here.

How the values were obtained:
Assay in all cases: DiscoverX KINOMEscan kinase profiling (468 assays)
Assay type in all cases: binding
human kinome [1] = molecular target: human kinome (Homo sapiens, UniProt Q9Y6R4); settings: MAP3K4; 100 nM; read-out: Percent Control
How it was run: (§1)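 DNA-tagged kinases competed for immobilized biotinylated ligands on streptavidin magnetic beads, with bound kinase quantified by qPCR. VIP152 in DMSO was tested against a DMSO control.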

human kinome [2] = molecular target: human kinome (Homo sapiens, UniProt Q8TF76); settings: HASPIN (Entrez GSG2); 100 nM; read-out: Percent Control
How it was run: as §1

human kinome [3] = molecular target: human kinome (Homo sapiens, UniProt Q52WX2); settings: kinase SBK1 (Entrez SBK1); compound concentration 1000 nM; read-out: Percent Control
How it was run: as §1

human kinome [4] = molecular target: human kinome (Homo sapiens, UniProt Q13043); settings: MST1 (Entrez STK4); 100 nM; read-out: Percent Control
How it was run: as §1

human kinome [5] = molecular target: human kinome (Homo sapiens, UniProt Q08345); settings: DDR1; 100 nM; read-out: Percent Control
How it was run: as §1

human kinome [6] = molecular target: human kinome (Homo sapiens, UniProt Q00537); settings: read-out: Percent Control
human kinome (Homo sapiens, UniProt Q00537), sequence (Q00537 whole entry): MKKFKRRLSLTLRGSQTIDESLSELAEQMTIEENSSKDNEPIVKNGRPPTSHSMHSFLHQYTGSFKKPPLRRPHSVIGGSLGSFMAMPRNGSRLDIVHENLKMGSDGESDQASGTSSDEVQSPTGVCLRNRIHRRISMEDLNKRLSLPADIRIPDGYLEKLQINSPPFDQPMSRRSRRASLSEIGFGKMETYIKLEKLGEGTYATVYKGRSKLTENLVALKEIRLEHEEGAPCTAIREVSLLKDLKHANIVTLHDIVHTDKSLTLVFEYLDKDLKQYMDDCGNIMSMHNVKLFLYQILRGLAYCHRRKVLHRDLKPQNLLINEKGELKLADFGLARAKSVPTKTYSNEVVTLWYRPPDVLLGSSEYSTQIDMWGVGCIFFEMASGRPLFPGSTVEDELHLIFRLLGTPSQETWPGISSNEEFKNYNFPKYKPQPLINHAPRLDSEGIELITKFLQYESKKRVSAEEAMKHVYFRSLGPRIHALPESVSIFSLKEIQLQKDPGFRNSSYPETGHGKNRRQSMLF
How it was run: as §1

human kinome [7] = molecular target: human kinome (Homo sapiens, UniProt P36507); settings: MEK2 (Entrez MAP2K2); 100 nM; read-out: Percent Control
How it was run: as §1

human kinome [8] = molecular target: human kinome (Homo sapiens, UniProt Q8WU08); settings: kinase YANK1 (Entrez STK32A); compound concentration 1000 nM; read-out: Percent Control
How it was run: as §1

human kinome [9] = molecular target: human kinome (Homo sapiens, UniProt P15056); settings: BRAF; 100 nM; read-out: Percent Control
How it was run: as §1

human kinome [10] = molecular target: human kinome (Homo sapiens, UniProt Q9H4B4); settings: read-out: Percent Control
human kinome (Homo sapiens, UniProt Q9H4B4), sequence (Q9H4B4 whole entry): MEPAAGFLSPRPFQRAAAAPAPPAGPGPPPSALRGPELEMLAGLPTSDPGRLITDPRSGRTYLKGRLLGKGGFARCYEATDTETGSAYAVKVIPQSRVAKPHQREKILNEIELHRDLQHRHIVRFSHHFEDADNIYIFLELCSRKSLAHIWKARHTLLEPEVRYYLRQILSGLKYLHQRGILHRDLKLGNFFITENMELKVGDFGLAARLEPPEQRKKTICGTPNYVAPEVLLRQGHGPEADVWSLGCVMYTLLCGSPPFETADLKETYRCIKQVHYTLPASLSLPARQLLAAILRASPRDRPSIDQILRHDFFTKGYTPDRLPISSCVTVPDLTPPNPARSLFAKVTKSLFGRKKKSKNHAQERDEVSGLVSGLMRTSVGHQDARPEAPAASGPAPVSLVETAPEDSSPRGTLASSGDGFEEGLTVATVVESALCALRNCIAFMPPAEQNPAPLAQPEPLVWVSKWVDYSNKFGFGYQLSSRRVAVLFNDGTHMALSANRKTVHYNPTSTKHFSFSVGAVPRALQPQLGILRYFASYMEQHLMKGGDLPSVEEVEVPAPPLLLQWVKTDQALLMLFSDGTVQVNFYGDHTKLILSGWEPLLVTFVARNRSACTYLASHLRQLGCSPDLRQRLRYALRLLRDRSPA
How it was run: as §1

human kinome [11] = molecular target: human kinome (Homo sapiens, UniProt Q15418); settings: compound concentration 1000 nM, read-out: Percent Control
How it was run: as §1

human kinome [12] = molecular target: human kinome (Homo sapiens, UniProt O96017); settings: CHEK2; 100 nM; read-out: Percent Control
How it was run: as §1

human kinome [13] = molecular target: human kinome (Homo sapiens, UniProt P51817); settings: read-out: Percent Control
human kinome (Homo sapiens, UniProt P51817), sequence (P51817 whole entry): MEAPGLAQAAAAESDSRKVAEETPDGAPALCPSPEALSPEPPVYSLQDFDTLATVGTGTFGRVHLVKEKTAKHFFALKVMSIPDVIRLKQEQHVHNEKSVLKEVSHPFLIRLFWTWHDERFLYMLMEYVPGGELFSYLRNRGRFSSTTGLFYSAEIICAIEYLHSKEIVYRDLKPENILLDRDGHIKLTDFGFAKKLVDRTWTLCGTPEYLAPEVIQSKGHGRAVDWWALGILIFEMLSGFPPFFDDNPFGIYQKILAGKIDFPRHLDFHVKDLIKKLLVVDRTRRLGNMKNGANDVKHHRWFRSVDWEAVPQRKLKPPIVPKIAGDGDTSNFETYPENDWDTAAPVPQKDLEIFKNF
How it was run: as §1

human kinome [14] = molecular target: human kinome (Homo sapiens, UniProt Q07002); settings: read-out: Percent Control
human kinome (Homo sapiens, UniProt Q07002), sequence (Q07002 whole entry): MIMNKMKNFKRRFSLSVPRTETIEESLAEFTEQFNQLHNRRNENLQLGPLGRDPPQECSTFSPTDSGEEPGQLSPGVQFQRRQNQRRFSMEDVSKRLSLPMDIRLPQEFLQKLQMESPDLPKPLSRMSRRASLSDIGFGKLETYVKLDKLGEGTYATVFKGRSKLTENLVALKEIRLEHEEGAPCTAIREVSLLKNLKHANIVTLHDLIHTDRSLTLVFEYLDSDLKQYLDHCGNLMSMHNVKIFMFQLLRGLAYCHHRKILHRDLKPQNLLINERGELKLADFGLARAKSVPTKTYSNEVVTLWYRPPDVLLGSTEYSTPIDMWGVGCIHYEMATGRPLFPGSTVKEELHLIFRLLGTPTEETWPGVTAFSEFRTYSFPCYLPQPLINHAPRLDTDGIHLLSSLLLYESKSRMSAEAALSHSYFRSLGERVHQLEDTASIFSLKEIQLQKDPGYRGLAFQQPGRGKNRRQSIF
How it was run: as §1

human kinome [15] = molecular target: human kinome (Homo sapiens, UniProt Q32MK0); settings: MLCK (Entrez MYLK3); 100 nM; read-out: Percent Control
How it was run: as §1

human kinome [16] = molecular target: human kinome (Homo sapiens, UniProt P08581, Y1235D); settings: MET(Y1235D); 100 nM; read-out: Percent Control
How it was run: as §1

human kinome [17] = molecular target: human kinome (Homo sapiens, UniProt O43353); settings: kinase RIPK2 (Entrez RIPK2); compound concentration 1000 nM; read-out: Percent Control
How it was run: as §1

human kinome [18] = molecular target: human kinome (Homo sapiens, UniProt P22694); settings: read-out: Percent Control
How it was run: as §1

human kinome [19] = molecular target: human kinome (Homo sapiens, UniProt Q96L34); settings: MARK4; 100 nM; read-out: Percent Control
How it was run: as §1

human kinome [20] = molecular target: human kinome (Homo sapiens, UniProt P17612); settings: read-out: Percent Control
How it was run: as §1

human kinome [21] = molecular target: human kinome (Homo sapiens, UniProt O94921); settings: read-out: Percent Control
human kinome (Homo sapiens, UniProt O94921), sequence (O94921 whole entry): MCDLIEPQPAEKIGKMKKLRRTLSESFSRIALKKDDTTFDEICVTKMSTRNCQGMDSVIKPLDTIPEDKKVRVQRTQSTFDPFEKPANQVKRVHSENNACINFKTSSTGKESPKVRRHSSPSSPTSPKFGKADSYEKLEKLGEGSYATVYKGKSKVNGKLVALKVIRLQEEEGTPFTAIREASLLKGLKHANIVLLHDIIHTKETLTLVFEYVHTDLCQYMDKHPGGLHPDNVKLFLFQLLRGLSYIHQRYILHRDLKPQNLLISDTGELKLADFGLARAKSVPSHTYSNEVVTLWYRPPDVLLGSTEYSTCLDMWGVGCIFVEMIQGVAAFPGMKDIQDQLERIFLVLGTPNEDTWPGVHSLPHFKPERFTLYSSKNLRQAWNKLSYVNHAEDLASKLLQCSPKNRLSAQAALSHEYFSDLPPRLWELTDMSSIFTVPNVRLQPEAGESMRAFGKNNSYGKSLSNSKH
How it was run: as §1

human kinome [22] = molecular target: human kinome (Homo sapiens, UniProt Q02750); settings: MEK1 (Entrez MAP2K1); 100 nM; read-out: Percent Control
How it was run: as §1

human kinome [23] = molecular target: human kinome (Homo sapiens, UniProt O00750); settings: read-out: Percent Control
human kinome (Homo sapiens, UniProt O00750), sequence (O00750 whole entry): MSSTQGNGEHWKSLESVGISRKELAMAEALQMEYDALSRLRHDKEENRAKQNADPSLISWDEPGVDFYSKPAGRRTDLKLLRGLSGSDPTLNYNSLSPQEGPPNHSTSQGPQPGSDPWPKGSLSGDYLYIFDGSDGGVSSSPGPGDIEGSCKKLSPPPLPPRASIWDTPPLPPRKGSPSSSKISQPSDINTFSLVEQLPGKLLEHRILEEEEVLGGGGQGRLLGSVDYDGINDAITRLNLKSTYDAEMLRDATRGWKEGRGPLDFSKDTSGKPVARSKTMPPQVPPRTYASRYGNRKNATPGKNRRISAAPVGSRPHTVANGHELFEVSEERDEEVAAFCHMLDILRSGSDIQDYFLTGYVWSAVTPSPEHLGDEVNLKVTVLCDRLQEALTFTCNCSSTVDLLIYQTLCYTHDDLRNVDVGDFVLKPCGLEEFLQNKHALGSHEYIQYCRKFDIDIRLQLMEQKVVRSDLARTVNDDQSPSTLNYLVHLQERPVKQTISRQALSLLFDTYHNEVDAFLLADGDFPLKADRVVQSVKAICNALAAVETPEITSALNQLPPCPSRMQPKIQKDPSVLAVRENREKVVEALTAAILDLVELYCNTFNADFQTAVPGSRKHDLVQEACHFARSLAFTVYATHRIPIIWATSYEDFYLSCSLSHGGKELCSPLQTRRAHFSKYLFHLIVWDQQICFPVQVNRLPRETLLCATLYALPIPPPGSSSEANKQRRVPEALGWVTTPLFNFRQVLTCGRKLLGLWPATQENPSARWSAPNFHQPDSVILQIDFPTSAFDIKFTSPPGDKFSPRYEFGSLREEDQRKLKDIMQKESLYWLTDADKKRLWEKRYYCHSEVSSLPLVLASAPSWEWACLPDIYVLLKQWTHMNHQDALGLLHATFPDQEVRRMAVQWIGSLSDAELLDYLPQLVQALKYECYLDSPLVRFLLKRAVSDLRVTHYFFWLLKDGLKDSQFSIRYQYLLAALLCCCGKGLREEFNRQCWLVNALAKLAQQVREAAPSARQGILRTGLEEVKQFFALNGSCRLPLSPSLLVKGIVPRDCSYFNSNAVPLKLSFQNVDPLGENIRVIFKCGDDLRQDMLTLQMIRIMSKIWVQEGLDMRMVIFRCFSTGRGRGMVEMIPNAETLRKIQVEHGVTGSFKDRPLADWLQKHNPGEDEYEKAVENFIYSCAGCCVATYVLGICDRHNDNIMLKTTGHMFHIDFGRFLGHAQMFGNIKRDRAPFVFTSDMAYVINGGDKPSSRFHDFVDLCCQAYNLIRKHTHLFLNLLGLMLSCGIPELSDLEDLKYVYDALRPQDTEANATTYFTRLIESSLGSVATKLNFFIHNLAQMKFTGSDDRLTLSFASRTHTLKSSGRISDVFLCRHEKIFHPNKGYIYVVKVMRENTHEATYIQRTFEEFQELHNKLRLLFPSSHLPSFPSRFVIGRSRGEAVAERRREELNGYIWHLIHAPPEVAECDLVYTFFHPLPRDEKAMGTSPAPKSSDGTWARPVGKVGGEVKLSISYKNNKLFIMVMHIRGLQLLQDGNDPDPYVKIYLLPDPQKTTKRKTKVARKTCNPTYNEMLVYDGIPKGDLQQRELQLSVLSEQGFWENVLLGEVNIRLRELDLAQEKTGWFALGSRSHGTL
How it was run: as §1

human kinome [24] = molecular target: human kinome (Homo sapiens, UniProt P31749); settings: AKT1; 100 nM; read-out: Percent Control
How it was run: as §1

human kinome [25] = molecular target: human kinome (Homo sapiens, UniProt P43403); settings: kinase ZAP70 (Entrez ZAP70); compound concentration 1000 nM; read-out: Percent Control
How it was run: as §1

human kinome [26] = molecular target: human kinome (Homo sapiens, UniProt P42336, C420R); settings: read-out: Percent Control
How it was run: as §1

human kinome [27] = molecular target: human kinome (Homo sapiens, UniProt P53779); settings: JNK3 (Entrez MAPK10); 100 nM; read-out: Percent Control
How it was run: as §1

human kinome [28] = molecular target: human kinome (Homo sapiens, UniProt Q13555); settings: CAMK2G; 100 nM; read-out: Percent Control
How it was run: as §1

human kinome [29] = molecular target: human kinome (Homo sapiens, UniProt Q9P286); settings: read-out: Percent Control
human kinome (Homo sapiens, UniProt Q9P286), sequence (Q9P286 whole entry): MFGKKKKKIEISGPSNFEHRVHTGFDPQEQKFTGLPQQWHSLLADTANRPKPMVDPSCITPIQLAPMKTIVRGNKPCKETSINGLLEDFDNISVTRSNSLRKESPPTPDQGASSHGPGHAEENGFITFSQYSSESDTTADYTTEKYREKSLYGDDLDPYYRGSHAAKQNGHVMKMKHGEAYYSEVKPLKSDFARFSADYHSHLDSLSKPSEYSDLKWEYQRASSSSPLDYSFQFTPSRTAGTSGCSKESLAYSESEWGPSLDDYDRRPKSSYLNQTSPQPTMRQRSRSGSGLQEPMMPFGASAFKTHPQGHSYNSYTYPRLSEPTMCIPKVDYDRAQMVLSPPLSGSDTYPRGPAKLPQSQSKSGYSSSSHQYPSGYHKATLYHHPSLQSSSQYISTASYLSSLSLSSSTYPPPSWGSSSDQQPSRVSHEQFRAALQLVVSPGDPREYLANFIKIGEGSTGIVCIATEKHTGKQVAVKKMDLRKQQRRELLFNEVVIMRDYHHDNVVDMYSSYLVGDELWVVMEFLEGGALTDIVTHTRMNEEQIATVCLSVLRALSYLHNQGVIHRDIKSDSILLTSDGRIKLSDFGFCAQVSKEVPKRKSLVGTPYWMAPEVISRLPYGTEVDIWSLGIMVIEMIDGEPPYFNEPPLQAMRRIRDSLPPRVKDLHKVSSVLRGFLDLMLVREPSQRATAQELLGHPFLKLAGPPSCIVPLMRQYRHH
How it was run: as §1

Work on `COc1cc(F)ccc1-c1cc(Nc2cc(CS(C)(=N)=O)ccn2)ncc1F` (stereo not shown) [VIP152] yielded a remaining binding at 0.1 µM (human kinome [1]) of 100%, a remaining binding at 0.1 µM (human kinome [2]) of 93% and a remaining binding at 1 µM (human kinome [3]) of 100%. It also gave a remaining binding at 0.1 µM (human kinome [4]) of 99%, a remaining binding at 0.1 µM (human kinome [5]) of 99% and a remaining binding at 0.1 µM (human kinome [6]; PCTK2 (Entrez CDK17), 100 nM) of 100%. For the same compound, the remaining binding at 1 µM (human kinome [6]; kinase PCTK2 (Entrez CDK17), compound concentration 1000 nM) was 54%, the remaining binding at 0.1 µM (human kinome [7]) was 100% and the remaining binding at 1 µM (human kinome [8]) was 97%. For the same compound, the remaining binding at 0.1 µM (human kinome [9]) was 100%, the remaining binding at 0.1 µM (human kinome [10]; PLK3, 100 nM) was 91% and the remaining binding at 1 µM (human kinome [10]; kinase PLK3 (Entrez PLK3), compound concentration 1000 nM) was 92%. It also gave a remaining binding at 1 µM (human kinome [11]; kinase RSK1(Kin.Dom.1-N-terminal) (Entrez RPS6KA1)) of 95%, a remaining binding at 1 µM (human kinome [11]; kinase RSK1(Kin.Dom.2-C-terminal) (Entrez RPS6KA1)) of 89% and a remaining binding at 0.1 µM (human kinome [12]) of 100%. For the same compound, the remaining binding at 0.1 µM (human kinome [13]; PRKX, 100 nM) was 100%, the remaining binding at 1 µM (human kinome [13]; kinase PRKX (Entrez PRKX), compound concentration 1000 nM) was 99% and the remaining binding at 0.1 µM (human kinome [14]; PCTK3 (Entrez CDK18), 100 nM) was 100%. The remaining binding at 1 µM (human kinome [14]; kinase PCTK3 (Entrez CDK18), compound concentration 1000 nM) was 84%, the remaining binding at 0.1 µM (human kinome [15]) was 100% and the remaining binding at 0.1 µM (human kinome [16]) was 82%. For the same compound, the remaining binding at 1 µM (human kinome [17]) was 49%, the remaining binding at 0.1 µM (human kinome [18]; PKAC-beta (Entrez PRKACB), 100 nM) was 100% and the remaining binding at 1 µM (human kinome [18]; kinase PKAC-beta (Entrez PRKACB), compound concentration 1000 nM) was 94%. The remaining binding at 0.1 µM (human kinome [19]) was 81%, the remaining binding at 0.1 µM (human kinome [20]; PKAC-alpha (Entrez PRKACA), 100 nM) was 97% and the remaining binding at 1 µM (human kinome [20]; kinase PKAC-alpha (Entrez PRKACA), compound concentration 1000 nM) was 100%. For the same compound, the remaining binding at 0.1 µM (human kinome [21]; PFTK1 (Entrez CDK14), 100 nM) was 100%, the remaining binding at 1 µM (human kinome [21]; kinase PFTK1 (Entrez CDK14), compound concentration 1000 nM) was 84% and the remaining binding at 0.1 µM (human kinome [22]) was 100%. The remaining binding at 0.1 µM (human kinome [23]; PIK3C2B, 100 nM) was 100%, the remaining binding at 1 µM (human kinome [23]; kinase PIK3C2B (Entrez PIK3C2B), compound concentration 1000 nM) was 90% and the remaining binding at 0.1 µM (human kinome [24]) was 100%. For the same compound, the remaining binding at 1 µM (human kinome [25]) was 80%, the remaining binding at 0.1 µM (human kinome [26]; PIK3CA(C420R), 100 nM) was 98% and the remaining binding at 1 µM (human kinome [26]; kinase PIK3CA(C420R) (Entrez PIK3CA), compound concentration 1000 nM) was 92%. It also gave a remaining binding at 0.1 µM (human kinome [27]) of 94%, a remaining binding at 0.1 µM (human kinome [28]) of 100% and a remaining binding at 0.1 µM (human kinome [29]; PAK7, 100 nM) of 100%. For the same compound, the remaining binding at 1 µM (human kinome [29]; kinase PAK7 (Entrez PAK7), compound concentration 1000 nM) was 78%.
